For assay [1], the target named is T1, HPK1 (Homo sapiens (Human), UniProt Q92918). Nature of the assay: HPK1 enzyme inhibition assay (ADP-Glo). Type of assay: biochemical. The protocol:
HPK1 Enzyme Inhibition Assay
The compound was dissolved in 100% DMSO at the concentration of 10 mM. The HPK1 protein was purchased from Signal Chem (M23-11G-10). 2.5 μL per well of 2×HPK1 protein was added to assay plate containing the test compound, centrifuged at 1500 rpm for 1 minute, and then incubated at 25° C. for 60 minutes. MBP protein was purchased from Signal Chem (M42-51N) and ATP was purchased from Promega (V9102). The two were added 2.5 μL per well mixture of 2×MBP (0.2 ug/ul) and ATP (20 μM), centrifuged at 1500 rpm for 1 minute, then incubated at 25° C. for 60 minutes. Then added 5 μL of ADP-Glo from Promega (V9102) to the assay plate and depleted the unconsumed ATP for 60 minutes. Then centrifuged at 1500 rpm for 1 minute and incubated at 25° C. for 60 minutes. Finally, 10 μL of the kinase assay reagent from Promega (V9102) was added to the assay plate to convert ADP to ATP, centrifuged at 1500 rpm for 1 minute, incubate at 25° C. for 40 minutes. After 40 minutes incubation, the […] was determined. Based on the results, the IC50 value of the compound was calculated.
Target sequence in this assay (Q92918 1-346 limits assumed): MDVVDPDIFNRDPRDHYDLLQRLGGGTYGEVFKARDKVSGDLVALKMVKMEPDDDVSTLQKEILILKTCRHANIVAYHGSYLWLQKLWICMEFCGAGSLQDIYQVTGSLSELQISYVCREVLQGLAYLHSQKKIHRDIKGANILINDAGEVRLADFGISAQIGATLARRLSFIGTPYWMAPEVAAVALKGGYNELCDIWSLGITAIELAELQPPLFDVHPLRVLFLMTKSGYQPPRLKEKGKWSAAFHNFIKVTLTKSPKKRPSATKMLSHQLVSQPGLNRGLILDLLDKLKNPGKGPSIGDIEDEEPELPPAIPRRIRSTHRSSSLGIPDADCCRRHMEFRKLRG
(In ADP-Glo the light output rises with the ADP produced.)

Assay [2] deals with FLT3-ITD (Homo sapiens, UniProt P36888). As to the kind of experiment: FLT3-ITD enzyme inhibition assay. It counts as biochemical. The following applies: enzyme inhibition. The protocol:
(§1) FLT3-ITD Enzyme Inhibition Assay
(§2) The compound was dissolved in 100% DMSO at the concentration of 10 mM. The FLT3-ITD protein was purchased from Invitrogen (PV6191). 10 μL per well of 2.5×FLT3-ITD protein was added to assay plate containing the test compound, centrifuged at 1000 rpm for 1 minute, and then incubated at 25° C. for 10 minutes. Peptide 2 was purchased from GL Biochem (112394) and ATP was purchased from Promega (V9102). The two were added 15 μL per well mixture of 1.67× peptide 2 (final conc. is 3 μM) and ATP (final conc. is 97.2 μM), centrifuged at 1000 rpm for 1 minute, then incubated at 25° C. for 40 minutes. Then added 30 μL of stop buffer (100 mM HEPES pH7.5, 0.015% Brij-35, 0.2% Coating Reagent 3, 50 mM EDTA) to the assay plate and centrifuged at 1000 rpm for 1 minute. the product was determined. Based on the results, the IC50 value of the compound was calculated.

In assay [3] the target is T2, Aurora A (Homo sapiens (Human), UniProt O14965). As to the kind of experiment: Aurora A enzyme inhibition assay. Type of assay: biochemical. The procedure: Aurora A Enzyme Inhibition Assay
T2 sequence (O14965 whole entry): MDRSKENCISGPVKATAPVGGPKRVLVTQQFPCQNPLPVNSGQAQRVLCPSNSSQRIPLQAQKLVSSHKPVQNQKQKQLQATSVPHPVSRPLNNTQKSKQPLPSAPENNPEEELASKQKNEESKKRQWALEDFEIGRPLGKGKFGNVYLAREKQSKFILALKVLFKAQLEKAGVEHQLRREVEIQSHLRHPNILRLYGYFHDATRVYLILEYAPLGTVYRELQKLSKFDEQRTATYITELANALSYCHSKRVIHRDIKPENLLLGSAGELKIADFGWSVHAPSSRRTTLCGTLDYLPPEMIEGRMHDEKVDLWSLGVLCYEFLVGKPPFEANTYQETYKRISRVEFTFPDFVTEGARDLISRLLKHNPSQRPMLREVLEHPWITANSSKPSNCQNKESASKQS
The compound was dissolved in 100% DMSO at the concentration of 10 mM. The Aurora A protein was purchased from Carna (05-101). 10 μL per well of 2.5×Aurora A protein was added to assay plate containing the test compound, centrifuged at 1000 rpm for 1 minute, and then incubated at 25° C. for 10 minutes. Peptide 21 was purchased from GL Biochem (116370) and ATP was purchased from Promega (V9102). The two were added 15 μL per well mixture of 1.67× peptide 21 (final conc. is 3 μM) and ATP (final conc. is 14.58 μM), centrifuged at 1000 rpm for 1 minute, then incubated at 25° C. for 40 minutes. Then added 30 μL of stop buffer (100 mM HEPES pH7.5, 0.015% Brij-35, 0.2% Coating Reagent 3, 50 mM EDTA) to the assay plate and centrifuged at 1000 rpm for 1 minute. the product was determined. Based on the results, the IC50 value of the compound was calculated.

The target in assay [4] is T1, HPK1. As to the kind of experiment: HPK1 degradation assay (western blot, human PBMC). The following applies: for DC50: read-out: HPK1 DC50; for Dmax: read-out: HPK1 Dmax. It counts as cell-based. The procedure:
Frozen human PBMC were purchased from Shanghai OribioTech and recovered with culture medium (RMPI1640) prior to use. The cells were then incubated with a variety of concentrations of compound. After incubation, the cells were collected and lysed. The protein concentration was determined by BCA protein assay kit from Thermo (23227). The HPK1 protein level was determined by western blots, using anti-human HPK1 polyclonal antibody from CST (4472S). Proteins were loaded into each well of the pre-casting gels and subjected to electrophoretic separation by SDS-PAGE. The protein resolved by SDS-PAGE were transferred to PVDF, blocked by 5% skim milk, and probed with anti-human HPK1 antibody or β-actin antibody from CST (3700S), using standard western blotting procedure.
Target sequence in this assay (Q92918 whole entry): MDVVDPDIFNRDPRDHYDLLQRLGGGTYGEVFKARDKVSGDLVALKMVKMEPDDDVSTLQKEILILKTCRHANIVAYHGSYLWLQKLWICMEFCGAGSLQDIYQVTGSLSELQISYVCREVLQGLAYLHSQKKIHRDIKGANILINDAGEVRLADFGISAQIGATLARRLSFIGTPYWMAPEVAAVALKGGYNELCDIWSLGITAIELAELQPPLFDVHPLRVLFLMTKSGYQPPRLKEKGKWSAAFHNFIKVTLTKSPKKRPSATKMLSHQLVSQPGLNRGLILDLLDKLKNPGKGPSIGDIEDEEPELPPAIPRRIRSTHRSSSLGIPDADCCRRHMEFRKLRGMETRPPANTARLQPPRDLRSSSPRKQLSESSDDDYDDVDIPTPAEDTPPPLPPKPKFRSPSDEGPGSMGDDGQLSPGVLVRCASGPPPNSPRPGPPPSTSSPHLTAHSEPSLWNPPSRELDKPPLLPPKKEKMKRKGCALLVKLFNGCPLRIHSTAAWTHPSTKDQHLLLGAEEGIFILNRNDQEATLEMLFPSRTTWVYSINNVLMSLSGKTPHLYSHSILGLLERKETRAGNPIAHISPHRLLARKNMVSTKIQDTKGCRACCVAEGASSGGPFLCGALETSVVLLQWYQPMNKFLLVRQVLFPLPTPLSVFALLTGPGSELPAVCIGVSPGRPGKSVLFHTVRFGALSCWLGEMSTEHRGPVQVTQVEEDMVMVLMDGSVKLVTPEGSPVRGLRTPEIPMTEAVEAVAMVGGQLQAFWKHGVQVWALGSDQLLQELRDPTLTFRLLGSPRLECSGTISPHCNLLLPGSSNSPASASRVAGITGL
Background: Immunoblotting shows a protein as a band on a membrane.

The subject of another assay is FLT3. Nature of the assay: FLT3 degradation assay (western blot, MV-411 cells). Type of assay: cell-based, human. The procedure: (§3) MV-411 cells were cultured with medium (IMDM) prior to use. Cells were then incubated with a variety of concentrations of compound. After incubation, the cells were collected and lysed. The protein concentration was determined by BCA protein assay kit from Thermo (23227). The FLT3 protein level was determined by western blots, using anti-human FLT3 monoclonal antibody from CST (3462S). Proteins were loaded into each well of the pre-casting gels and subjected to electrophoretic separation by SDS-PAGE. The protein resolved by SDS-PAGE were transferred to PVDF, blocked by 5% skim milk, and probed with anti-human FLT3 antibody or -actin antibody from CST (3700S), using standard western blotting procedure.

Assay [5] deals with T2, Aurora A. Nature of the assay: Aurora A degradation assay (western blot). Type of assay: cell-based. To be noted: for DC50: read-out: Aurora A DC50; for Dmax: read-out: Aurora A Dmax. The protocol: Aurora A Degradation Assay
as §3, with “IMR32” for “MV-411”, “cultured with medium (MEM), Huh7 cells were cultured with medium (DMEM) and HL-60 cells were culture” for “cultured”, “AURKA” for “FLT3”, “(14475S).” for “(3462S).”, “β-actin” for “-actin”, “(3700S) or COX IV antibody from CST (4850S),” for “(3700S),”

For another assay, the system named is MEK 1/2. Nature of the assay: MEK 1/2 degradation assay (western blot). It counts as cell-based, human. The protocol: MEK 1/2 Degradation Assay
as §3, with “(IMDM) and IMR32 cells were cultured with medium (MEM)” for “(IMDM)”, “anti-human MEK 1/2 polyclonal” for “anti-human FLT3 monoclonal”, “CST (9122S).” for “CST (3462S).”, “anti-human MEK1/2” for “anti-human FLT3”, “or β-actin” for “or -actin”, “CST (3700S) and COX IV antibody from CST (4850S),” for “CST (3700S),”

The target in assay [6] is FLT3-ITD (Homo sapiens, UniProt P36888, ITD). Nature of the assay: FLT3-ITD enzyme inhibition assay. It counts as biochemical. The protocol:
as §1, §2

Setting [7] is: protein degradation, human PBMC.
The mark [8] stands for this setting: protein degradation, class symbol, read-out: FLT3 DC50 (nM)/Dmax (%).
The mark [9] stands for this setting: protein degradation, IMR32, Huh7 or HL-60 cells.
[10] abbreviates: protein degradation, MV-411 or IMR32 cells.
The mark [11] stands for this setting: protein degradation, MV-411 or IMR32 cells; read-out: MEK 1/2 DC50.
Setting [12] is: enzyme inhibition, read-out: FLT3-ITD IC50.

SMILES strings stand for the structures. Where two headings read alike, the source gives them in different places. Some results are limits rather than exact numbers.

Sequence of FLT3-ITD (Homo sapiens, UniProt P36888, ITD) (P36888 whole entry, looked up, change not shown): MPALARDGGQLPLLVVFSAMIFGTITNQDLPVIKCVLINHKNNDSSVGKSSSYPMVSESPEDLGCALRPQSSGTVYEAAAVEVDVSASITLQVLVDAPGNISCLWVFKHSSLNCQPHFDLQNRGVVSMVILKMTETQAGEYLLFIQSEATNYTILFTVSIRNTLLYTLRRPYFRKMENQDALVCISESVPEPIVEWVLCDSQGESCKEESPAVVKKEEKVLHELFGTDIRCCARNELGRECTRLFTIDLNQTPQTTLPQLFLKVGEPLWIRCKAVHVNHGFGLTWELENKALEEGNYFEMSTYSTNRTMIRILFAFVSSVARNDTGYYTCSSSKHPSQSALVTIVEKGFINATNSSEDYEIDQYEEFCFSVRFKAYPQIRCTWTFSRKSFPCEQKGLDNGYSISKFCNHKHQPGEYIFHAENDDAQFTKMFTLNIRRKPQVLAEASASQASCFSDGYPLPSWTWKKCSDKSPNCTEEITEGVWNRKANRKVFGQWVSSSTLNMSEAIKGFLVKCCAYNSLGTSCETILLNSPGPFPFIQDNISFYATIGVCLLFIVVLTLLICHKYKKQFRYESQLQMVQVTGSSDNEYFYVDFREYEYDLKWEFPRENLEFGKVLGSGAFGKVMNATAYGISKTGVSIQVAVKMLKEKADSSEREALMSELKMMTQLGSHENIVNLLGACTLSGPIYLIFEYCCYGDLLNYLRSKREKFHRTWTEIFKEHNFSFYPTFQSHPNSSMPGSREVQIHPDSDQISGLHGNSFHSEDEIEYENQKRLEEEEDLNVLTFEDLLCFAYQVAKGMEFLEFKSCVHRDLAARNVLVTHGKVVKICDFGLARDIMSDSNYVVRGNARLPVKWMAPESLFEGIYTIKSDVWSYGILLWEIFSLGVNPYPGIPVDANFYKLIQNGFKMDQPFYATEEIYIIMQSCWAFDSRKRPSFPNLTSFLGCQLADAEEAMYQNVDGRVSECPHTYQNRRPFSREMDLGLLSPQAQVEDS
Sequence of FLT3-ITD (Homo sapiens, UniProt P36888) (P36888 whole entry, looked up, change not shown): as above

On to `CCc1c[nH]c2ncc(-c3cccc(N4CCCN(CCN5CCN(c6cc7c(cc6F)C(=O)N(C6CCC(=O)NC6=O)C7)CC5)C4=O)c3)c(Cl)c12` (stereo not drawn) [Example 7, 3-(5-(4-(2-(3-(3-(4-chloro-3-ethyl-1H-pyrrolo [2,3-b]pyridin-5-yl)phenyl)-2-oxotetrahydropyrimidin-1 (2H)-yl)ethyl)piperazin-1-yl)-6-fluoro-1-oxoisoindolin-2-yl) piperidine-2,6-dione], for which the IC50 – broadly, the concentration needed to halve the response being measured – on HPK1 [1] was 10.5 nM; on FLT3-ITD [2], 12.3 nM; on Aurora A [3], 10.6 nM. Also, the “HPK1 Dmax” value at HPK1 [4] (setting [7]) came out at 60%. The DC50 is 12 nM at HPK1 [4] (setting [7]), greater than 10000 nM in the assay with FLT3 (setting [8]), 5 nM on Aurora A [5] (setting [9]) and 264 nM in the assay on MEK 1/2 (setting [11]). The “Aurora A Dmax” value at Aurora A [5] (setting [9]) was 50%. For the same molecule, in the assay on MEK 1/2 (setting [10]), the “MEK 1/2 Dmax” value was determined as 37%.
Take `CCc1c[nH]c2ncc(-c3cccc(N4CCCN(CCC5CCN(c6ccc(NC7CCC(=O)NC7=O)cc6F)CC5)C4=O)c3)c(Cl)c12` (stereo not drawn) [Example 16, 3-((4-(4-(2-(3-(3-(4-chloro-3-ethyl-1H-pyrrolo [2,3-b]pyridin-5-yl)phenyl)-2-oxotetrahydropyrimidin-1 (2H)-yl)ethyl)piperidin-1-yl)-3-fluorophenyl)amino) piperidine-2,6-dione]: the half-inhibitory concentration (IC50) worked out at 5.5 nM on HPK1 [1], 12.3 nM against FLT3-ITD [6] and 40.8 nM at Aurora A [3]. The DC50 was 100 nM on HPK1 [4] (setting [7]); 115 nM with FLT3 (read-out: FLT3 DC50, protein degradation); 4.6 nM at Aurora A [5] (setting [9]); 4.6 nM with MEK 1/2 (read-out: MEK 1/2 DC50; protein degradation, MV-411 or IMR32 cells). For the same molecule, the results for the Dmax on HPK1 [4] and at Aurora A [5] were 64% and 75%, respectively. Also, in the assay with FLT3 (protein degradation), the “FLT3 Dmax” value turned out to be 17%. For the same molecule, the “MEK 1/2 Dmax” value in the assay with MEK 1/2 (setting [10]) is listed as 75%.
For `CCc1c[nH]c2ncc(-c3cccc(N4CCCN(CCN5CCN(c6ccc(C7CCC(=O)NC7=O)cc6)CC5)C4=O)c3)c(Cl)c12` (stereo not drawn) [Example 17], the IC50 against HPK1 [1] was found to be 2.9 nM; at FLT3-ITD [6] (setting [12]), 17.4 nM; against Aurora A [3], 16.6 nM. Besides, the DC50 at HPK1 [4] (setting [7]) came to 2.3 nM; in the assay with FLT3 (protein degradation, read-out: FLT3 DC50) it was 8.7 nM; on Aurora A [5] (setting [9]), 1 nM; with MEK 1/2 (setting [11]) it was 1 nM. The Dmax (as a rule, the greatest extent of degradation seen) at HPK1 [4] (setting [7]) is 91%; at Aurora A [5] (setting [9]) it was 50%. The “FLT3 Dmax” value in the assay on FLT3 (protein degradation) came out at 80%. Also, the “MEK 1/2 Dmax” value in the assay on MEK 1/2 (setting [10]) came out at 47%.
`CCc1c[nH]c2ncc(-c3cccc(N4CCCN(CCN5CCN(c6ccc(NC7CCC(=O)NC7=O)cc6F)CC5)C4=O)c3)c(Cl)c12` (stereo not drawn) [Example 18]: the IC50 against HPK1 [1] was 2.5 nM; at FLT3-ITD [6] (setting [12]), 5.4 nM; against Aurora A [3], 10.6 nM. Also, the DC50 at HPK1 [4] (setting [7]) is 1 nM; in the assay on FLT3 (setting [8]), greater than 10000 nM; on Aurora A [5] (setting [9]), 1.1 nM; with MEK 1/2 (setting [11]), 1 nM. Also, the results for the Dmax on HPK1 [4] (setting [7]) and at Aurora A [5] (setting [9]) were 52% and 74%, respectively. Moreover, the “MEK 1/2 Dmax” value in the assay with MEK 1/2 (setting [10]) is 74%.
